Source: patent publication US20030235860A1, “Interactions between AR, ER, TR2, and TR4” (priority 1999, published 2003)

T1: TR4 LBD (row label of Table 4) (human, UniProt P49116 205-596)
T1 construct: not shown: Fusion partner: GST in the pull-down with ER, GAL4-DBD in the hybrid assays with AR
T1 sequence: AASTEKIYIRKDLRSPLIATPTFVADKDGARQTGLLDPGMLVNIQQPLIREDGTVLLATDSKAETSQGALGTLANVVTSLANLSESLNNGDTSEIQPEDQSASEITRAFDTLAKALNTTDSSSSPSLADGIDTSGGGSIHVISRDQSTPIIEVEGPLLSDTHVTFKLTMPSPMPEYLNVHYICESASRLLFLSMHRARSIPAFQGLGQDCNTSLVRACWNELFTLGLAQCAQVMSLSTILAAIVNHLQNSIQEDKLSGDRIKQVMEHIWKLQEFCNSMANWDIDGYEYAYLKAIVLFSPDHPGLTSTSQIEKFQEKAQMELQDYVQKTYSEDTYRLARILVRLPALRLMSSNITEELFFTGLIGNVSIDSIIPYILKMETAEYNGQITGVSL

T2: TR4 orphan receptor (TR4), full-length (human, UniProt P49116 1-596)
T2 construct: Full-length TR4; 35S-labeled when in vitro translated, expressed from plasmids in the cell assays; also called pCMX-TR4; pCMV-TR4
T2 sequence: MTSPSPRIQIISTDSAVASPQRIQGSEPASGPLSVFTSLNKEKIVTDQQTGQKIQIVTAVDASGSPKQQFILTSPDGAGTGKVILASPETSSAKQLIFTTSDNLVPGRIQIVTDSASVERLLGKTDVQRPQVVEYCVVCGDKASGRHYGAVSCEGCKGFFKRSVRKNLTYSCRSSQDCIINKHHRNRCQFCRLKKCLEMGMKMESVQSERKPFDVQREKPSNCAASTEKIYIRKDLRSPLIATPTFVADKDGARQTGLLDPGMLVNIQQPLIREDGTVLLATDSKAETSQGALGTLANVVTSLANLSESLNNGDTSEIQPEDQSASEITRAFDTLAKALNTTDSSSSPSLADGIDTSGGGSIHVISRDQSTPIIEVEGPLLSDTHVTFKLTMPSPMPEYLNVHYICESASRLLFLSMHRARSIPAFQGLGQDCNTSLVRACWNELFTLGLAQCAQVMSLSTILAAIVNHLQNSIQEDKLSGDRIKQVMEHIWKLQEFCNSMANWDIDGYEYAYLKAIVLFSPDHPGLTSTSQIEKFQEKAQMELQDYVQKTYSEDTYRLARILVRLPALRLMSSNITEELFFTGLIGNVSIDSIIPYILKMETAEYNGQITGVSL


Assays:
PR = experiment: Endogenous PR expression in T47D cells (Northern / Western); format: cell-based, human; conditions: T47D cells; 10 nM E2, 24 h
Experimental: The method was used as previously described, Lee & Chang. (1996) J. Biol. Chem. 271. 10405-10412, with some modifications. Briefly. 5 μg of pCMV-TR2 was transiently transfected into T47D cells and lysed in RIPA buffer (10 mM sodium phosphate, pH 7.0. 150 mM NaCL, 2 mM EDT A. 1% (w/v) Nonidet P-40, 0.1% (w/v) SDS. 1% (w/v) sodium deoxycholate) with freshly adding proteinase inhibitors. The soluble protein was quantified using the Bio-Rad Protein Assay reagent (Bio-Rad Laboratories) and 50 μg soluble proteins were loaded onto SDS/10% PAGE and then transferred to Immobion-P transfer membrane (Millipore). After the blocking reaction overnight, the membrane was incubated with […] anti-PR polyclonal antibody (H-190. Santa Cruz) in PBS(−) containing 0.1% Skim milk for 2 h at room temperature. The membrane was washed and then incubated in 15 μCi 125I] of protein-A (DuPont NEN)/30 ml of PBS(−) containing 0.1% Skim milk for 1 h at room temperature. The western blots were autoradiographed and quantitated by using Phosphorlmager.
RNA isolation and Northern blot analysis were performed as previously described. Young, et al., J. Biol. Chem. 273,20877-20885 (1998).
Next it was determined if TR2 could repress the ER endogenous target gene expression. PR was chosen because it is well studied as an E2-ER target gene in T47D cells. Misrahi et al., Biochem. Biophys. Res. Commun. 143, 740-748 (1987). […] Cells were then used for RNA isolation (Northern blot analysis) and lysate protein extraction (Western blot analysis). For RNA analysis, total RNAs were isolated, and Northern blots were performed using [32P] labeled PR cDNA probes. The membrane was autoradiographed. For Protein Western blot analysis, cells lysates were prepared and PR proteins were visualized by radioimmunoblot. The membrane was autoradiographed to Phosphorimager and was quantitated by ImageQuant software.

cyclin D1 = experiment: Western blot of cyclin D1 in MCF-7-TR4 cells; format: cell-based; conditions: 10 nM E2, Dox
Experimental: MCF-7-TR4 or MCF-7-pBIG cells were cultured in DMEM containing 10% charcoal dextran-treated FBS for 3 days and then 1×10^6 cells were seeded on 100-mm dishes. […] The lysate protein amount was quantitated by Bradford assay (Bio-Rad, Hercules, Calif.) with bovine serum albumin as a reference standard. One hundred μg protein was loaded and after electrophoresis on 10% SDS-PAGE was transferred onto Immobulin (Milipore, Bedford, Mass.). The membrane was blotted with anti-cyclin D1 rabbit polyclonal Ab (H-295) (Santa Cruz). Alkaline phosphatase conjugated secondary Ab was used.

MCF7-TR2 cells = experiment: Cell cycle profile by flow cytometry, MCF7-TR2 cells; format: cell-based; conditions: 3 days, E2, or E2 with doxycycline-induced TR2
Experimental: (A) Growth assays were performed by MTT method as instructed by manufacturer (Sigma). 5×10^3 MCF7-pBIG and MCF7-TR2 cells were seeded in 24-well plates and incubated in RPMI with 10% CD-FCS for 48 h. […] After 3- and 5-day treatment, cells were harvested for MTT assay. Data represents the relative folds of MTT O.D.570 values at day 5 divided by that at day 3. […] Cells were then trypsinized and fixed overnight in 70% Ethanol. After cells were incubated with 1 mg/ml RNase A (Sigma) and propidium iodide (Roche Molecular Biochemicals), the DNA contents of cells were measured by a flow cytometry. (C) Percentage of growth suppression by TR2. MCF7-TR2 cells were seeded at 5×10^3 cells per well in 24-well plates. […] The treatments were changed every two days. The indices of cell growth were determined by MTT assay. The MTT values from cells without doxycycline were set as 100% in each kind of treatment. Values are represented by the percentage of growth suppression from cells with doxycycline to that without doxycycline.

MCF-7-TR4 cells = experiment: MCF-7 cells growth assay (cell counting); format: cell-based; conditions: MCF-7-TR4 cells (E2 also in MCF-7-pBIG); 10 nM E2; Dox
Experimental: MCF-7-TR4 and MCF-7-pBIG cells, which were deprived of estrogen by culturing in phenol-free DMEM medium supplement with 10% charcol-stripped FBS for 4 days, were plated at 10^4 cells/well into 24-well plate. […] Cells were trypsinized at the specified time points and counted with a hemocytometer to determine cell density per sample.

[1] = target: T1, TR4 LBD (row label of Table 4); experiment: Table 4, summary of interactions tested; assay not given
[2] = target: T2, TR4 orphan receptor (TR4), full-length; experiment: as above

binding result [1] | binding result [2] | Molecule | Induction of PR mRNA expression (PR) | Cyclin D1 expression (cyclin D1) | Cells in G1 (MCF7-TR2 cells) | Cells in S (MCF7-TR2 cells) | Cell growth (cell number) (MCF-7-TR4 cells)
 |  | C[C@]12CC[C@@H]3c4ccc(O)cc4CC[C@H]3[C@@H]1CC[C@@H]2O [E2, 17β-estradiol, reference compound] | about 3 fold | induced cyclin D1 expression | 37.4% | 23.6% | stimulated cell growth
binds | binds | ER LBD 282-595 (column label of Table 4) (receptor, not shown: large carriers) SAGDMRAANLWPSPLMIKRSKKNSLALSLTADQMVSALLDAEPPILYSEYDPTRPFSEASMMGLLTNLADRELVHMINWAKRVPGFVDLTLHDQVHLLECAWLEILMIGLVWRSMEHPVKLLFAPNLLLDRNQGKCVEGMVEIFDMLLATSSRFRMMNLQGEEFVCLKSIILLNSGVYTFLSSTLKSLEEKDHIHRVLDKITDTLIHLMAKAGLTLQQQHQRLAQLLLILSHIRHMSNKGMEHLYSMKCKNVVPLYDLLLEMLDAHRLHAPTSRGGASVEETDQSHLATAGSTSSHSLQKYYITGEAEGFPATV |  |  |  |  | 
